Data as given in US20050282743A1, “Molecular interactions in cells” (Arbor Vita Corporation, priority 2001, published 2005).
pKd: −log10 of the molar value. Like-named read-outs stand apart in the source and are kept apart here. Ends that are not written are not given here. Peptide text beside a SMILES is read from it. * marks the point of attachment. Biotin = O=C1N[C@H]2[C@H](CS[C@H]2CCCCC(=O)*)N1

Key:
Type in all cases: binding
[1] = biological target: T1, PDZ protein (GST-PDZ fusion) (Homo sapiens, UniProt Q9NZN5); assay: G' assay (10 uM PL peptide), results of TABLE 7 and TABLE 12; conditions: PDZ KIAA0382, PDZ Domain 1
T1 construct: made in house; host or cells: E. coli (DH5alpha, BL21 or JM109)
T1 sequence (Q9NZN5 whole entry, the tested form may be a part): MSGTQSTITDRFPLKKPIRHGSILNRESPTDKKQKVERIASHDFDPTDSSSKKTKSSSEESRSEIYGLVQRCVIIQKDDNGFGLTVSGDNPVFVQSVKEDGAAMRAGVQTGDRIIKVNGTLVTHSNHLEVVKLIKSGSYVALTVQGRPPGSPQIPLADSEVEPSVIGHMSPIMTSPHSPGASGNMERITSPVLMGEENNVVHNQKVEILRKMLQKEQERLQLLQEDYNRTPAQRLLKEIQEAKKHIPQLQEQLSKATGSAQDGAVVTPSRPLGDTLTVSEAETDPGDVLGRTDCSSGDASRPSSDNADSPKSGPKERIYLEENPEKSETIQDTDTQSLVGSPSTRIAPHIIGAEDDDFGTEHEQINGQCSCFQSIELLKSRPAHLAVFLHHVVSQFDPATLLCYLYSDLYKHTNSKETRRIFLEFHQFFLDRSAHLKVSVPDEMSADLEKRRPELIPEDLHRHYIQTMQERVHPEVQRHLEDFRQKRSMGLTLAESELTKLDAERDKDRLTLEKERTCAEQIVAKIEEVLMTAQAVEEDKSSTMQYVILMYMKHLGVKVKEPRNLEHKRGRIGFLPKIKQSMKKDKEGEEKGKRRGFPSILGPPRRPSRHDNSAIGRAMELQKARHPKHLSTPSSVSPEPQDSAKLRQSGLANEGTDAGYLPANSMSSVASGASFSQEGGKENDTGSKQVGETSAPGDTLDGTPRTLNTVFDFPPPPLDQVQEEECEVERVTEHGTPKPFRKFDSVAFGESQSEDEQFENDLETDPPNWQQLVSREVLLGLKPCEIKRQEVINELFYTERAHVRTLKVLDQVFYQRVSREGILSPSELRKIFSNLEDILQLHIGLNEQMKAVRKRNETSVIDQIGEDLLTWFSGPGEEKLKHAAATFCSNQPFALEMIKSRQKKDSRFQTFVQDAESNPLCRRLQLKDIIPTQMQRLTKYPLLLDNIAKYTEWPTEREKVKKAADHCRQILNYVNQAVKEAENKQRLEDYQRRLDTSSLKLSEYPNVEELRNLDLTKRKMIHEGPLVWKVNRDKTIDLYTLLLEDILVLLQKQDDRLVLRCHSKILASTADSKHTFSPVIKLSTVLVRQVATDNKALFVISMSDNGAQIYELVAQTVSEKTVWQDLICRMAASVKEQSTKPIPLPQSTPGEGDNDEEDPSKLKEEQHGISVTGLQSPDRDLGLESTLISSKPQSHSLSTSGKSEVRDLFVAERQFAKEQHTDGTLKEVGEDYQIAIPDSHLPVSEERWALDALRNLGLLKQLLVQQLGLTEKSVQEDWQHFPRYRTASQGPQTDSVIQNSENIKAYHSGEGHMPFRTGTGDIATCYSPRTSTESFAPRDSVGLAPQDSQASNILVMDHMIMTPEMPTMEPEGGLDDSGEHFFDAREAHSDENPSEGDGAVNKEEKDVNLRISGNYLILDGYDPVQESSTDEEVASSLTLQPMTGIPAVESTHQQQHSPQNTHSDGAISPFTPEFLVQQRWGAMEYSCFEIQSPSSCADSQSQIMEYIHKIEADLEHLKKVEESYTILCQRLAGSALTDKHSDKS
Summary of the method: (§1)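 Same steps as the G-zero format, apart from a peptide concentration of 10 uM in place of 20 uM in step 2. Amino-terminally biotinylated PL peptides bind GST-PDZ fusions, and retained peptide is quantified by 450 nm absorbance.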

[2] = biological target: T2, PDZ protein (GST-PDZ fusion) (Homo sapiens, UniProt O14907); assay: as above; conditions: PDZ TIP1, PDZ Domain 1
T2 construct: made in house; host or cells: E. coli (DH5alpha, BL21 or JM109)
T2 sequence (O14907 1-124): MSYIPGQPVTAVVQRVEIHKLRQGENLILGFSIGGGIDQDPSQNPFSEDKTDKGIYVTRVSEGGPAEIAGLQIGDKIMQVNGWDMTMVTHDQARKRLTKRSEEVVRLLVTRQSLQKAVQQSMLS
Summary of the method: as §1

[3] = biological target: T3, PDZ protein (GST-PDZ fusion) (Homo sapiens, UniProt O15018); assay: as above
T3 construct: made in house; host or cells: E. coli (DH5alpha, BL21 or JM109)
T3 sequence (O15018 whole entry, the tested form may be a part): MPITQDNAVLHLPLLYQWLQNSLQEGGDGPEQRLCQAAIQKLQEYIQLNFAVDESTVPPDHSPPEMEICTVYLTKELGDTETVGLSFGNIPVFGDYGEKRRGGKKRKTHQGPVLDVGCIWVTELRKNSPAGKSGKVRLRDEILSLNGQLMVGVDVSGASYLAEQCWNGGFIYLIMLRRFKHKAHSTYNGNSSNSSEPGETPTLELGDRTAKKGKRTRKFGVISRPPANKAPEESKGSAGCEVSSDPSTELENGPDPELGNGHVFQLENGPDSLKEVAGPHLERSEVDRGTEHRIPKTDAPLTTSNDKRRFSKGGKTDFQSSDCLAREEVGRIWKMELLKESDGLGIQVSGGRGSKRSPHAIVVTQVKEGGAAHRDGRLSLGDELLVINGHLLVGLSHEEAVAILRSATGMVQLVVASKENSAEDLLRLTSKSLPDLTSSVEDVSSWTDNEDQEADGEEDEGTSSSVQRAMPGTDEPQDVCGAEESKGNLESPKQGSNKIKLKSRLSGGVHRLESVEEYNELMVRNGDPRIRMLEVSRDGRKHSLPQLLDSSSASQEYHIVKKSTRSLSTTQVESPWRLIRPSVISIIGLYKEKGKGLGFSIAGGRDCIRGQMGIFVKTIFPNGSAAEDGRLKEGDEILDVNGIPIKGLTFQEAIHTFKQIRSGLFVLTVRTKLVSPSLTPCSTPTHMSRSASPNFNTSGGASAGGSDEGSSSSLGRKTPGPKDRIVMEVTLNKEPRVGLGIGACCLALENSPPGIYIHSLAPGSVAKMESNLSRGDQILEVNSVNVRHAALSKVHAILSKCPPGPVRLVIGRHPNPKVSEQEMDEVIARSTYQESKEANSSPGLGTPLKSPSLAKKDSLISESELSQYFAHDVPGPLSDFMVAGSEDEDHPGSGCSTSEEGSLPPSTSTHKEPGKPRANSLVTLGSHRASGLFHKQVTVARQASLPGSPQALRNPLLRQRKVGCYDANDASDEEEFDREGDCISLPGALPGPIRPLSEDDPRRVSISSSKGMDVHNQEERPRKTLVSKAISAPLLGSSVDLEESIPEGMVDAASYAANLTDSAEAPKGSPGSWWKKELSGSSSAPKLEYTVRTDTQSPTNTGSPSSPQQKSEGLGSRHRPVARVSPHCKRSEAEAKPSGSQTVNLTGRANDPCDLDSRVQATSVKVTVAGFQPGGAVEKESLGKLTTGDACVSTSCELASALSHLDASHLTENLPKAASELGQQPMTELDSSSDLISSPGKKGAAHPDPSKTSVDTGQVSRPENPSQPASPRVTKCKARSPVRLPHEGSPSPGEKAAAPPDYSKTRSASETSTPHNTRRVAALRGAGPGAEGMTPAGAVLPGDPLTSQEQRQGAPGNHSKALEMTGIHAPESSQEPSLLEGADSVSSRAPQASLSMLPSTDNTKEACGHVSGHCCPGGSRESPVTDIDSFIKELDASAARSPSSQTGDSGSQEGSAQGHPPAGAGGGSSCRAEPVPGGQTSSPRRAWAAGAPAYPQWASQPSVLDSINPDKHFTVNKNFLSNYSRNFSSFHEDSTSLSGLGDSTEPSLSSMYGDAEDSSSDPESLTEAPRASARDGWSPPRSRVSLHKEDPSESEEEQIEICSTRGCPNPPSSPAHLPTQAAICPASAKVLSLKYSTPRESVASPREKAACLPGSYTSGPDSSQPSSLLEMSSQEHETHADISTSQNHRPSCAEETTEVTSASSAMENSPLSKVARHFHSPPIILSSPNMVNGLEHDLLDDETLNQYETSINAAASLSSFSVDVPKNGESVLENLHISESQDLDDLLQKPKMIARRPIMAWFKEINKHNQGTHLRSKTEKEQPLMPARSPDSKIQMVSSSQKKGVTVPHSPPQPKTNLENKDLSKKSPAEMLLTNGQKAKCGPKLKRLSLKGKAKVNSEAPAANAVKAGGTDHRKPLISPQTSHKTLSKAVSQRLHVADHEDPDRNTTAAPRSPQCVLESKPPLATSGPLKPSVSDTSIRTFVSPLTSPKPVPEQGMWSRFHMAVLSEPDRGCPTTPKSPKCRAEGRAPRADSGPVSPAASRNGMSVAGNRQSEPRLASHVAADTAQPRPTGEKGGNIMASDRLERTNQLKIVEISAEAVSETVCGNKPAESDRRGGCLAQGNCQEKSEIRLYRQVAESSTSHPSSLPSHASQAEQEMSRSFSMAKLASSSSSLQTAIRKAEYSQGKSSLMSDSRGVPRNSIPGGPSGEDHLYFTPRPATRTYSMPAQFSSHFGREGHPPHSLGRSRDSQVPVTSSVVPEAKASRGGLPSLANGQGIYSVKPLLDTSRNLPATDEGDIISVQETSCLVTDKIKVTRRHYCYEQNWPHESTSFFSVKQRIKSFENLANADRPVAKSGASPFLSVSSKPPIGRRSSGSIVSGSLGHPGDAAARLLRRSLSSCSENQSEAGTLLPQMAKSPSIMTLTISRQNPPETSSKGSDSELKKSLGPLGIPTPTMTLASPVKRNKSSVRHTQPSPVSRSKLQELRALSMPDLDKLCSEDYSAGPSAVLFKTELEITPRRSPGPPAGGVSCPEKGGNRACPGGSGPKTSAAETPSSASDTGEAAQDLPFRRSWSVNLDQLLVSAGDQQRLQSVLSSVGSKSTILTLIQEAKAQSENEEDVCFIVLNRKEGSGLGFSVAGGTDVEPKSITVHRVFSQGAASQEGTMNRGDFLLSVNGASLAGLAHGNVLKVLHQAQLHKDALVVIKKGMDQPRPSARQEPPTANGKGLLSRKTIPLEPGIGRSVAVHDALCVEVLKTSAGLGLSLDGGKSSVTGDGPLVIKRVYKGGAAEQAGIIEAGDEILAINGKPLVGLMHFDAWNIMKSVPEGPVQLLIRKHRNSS
Summary of the method: as §1

[4] = biological target: T4, PDZ protein (GST-PDZ fusion) (Homo sapiens, UniProt Q8NI35); assay: as above; conditions: PDZ INADL, PDZ Domain 8
T4 construct: made in house; host or cells: E. coli (DH5alpha, BL21 or JM109)
Summary of the method: as §1

[5] = biological target: PDZ-domain polypeptide (GST/PDZ fusion protein); assay: Apparent affinity (Kd) by titration of PL peptide in the G assay; conditions: read-out: Peptide Optimal Conc (Kd by titration of the PL peptide)
Summary of the method: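 A fixed concentration of GST/PDZ fusion protein, 5 ug/ml by default, was mixed in solution with increasing labeled PL peptide (e.g. 0.1 uM-1 mM). Reaction times ranged from 10 minutes to 2 days at 4-37° C. Complexes were separated from free peptide and detected via the label as in the G assay, apparent affinity coming from the saturating concentration.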

[6] = biological target: T5, PDZ protein (GST-PDZ fusion) (Homo sapiens, UniProt Q14160); assay: G' assay (10 uM PL peptide), results of TABLE 7 and TABLE 12; conditions: PDZ KIAA0147, PDZ Domain 1
T5 construct: made in house; host or cells: E. coli (DH5alpha, BL21 or JM109)
Summary of the method: as §1

[7] = biological target: T6, PDZ protein (GST-PDZ fusion) (Homo sapiens, UniProt P57105); assay: as above; conditions: PDZ Outer Membrane, PDZ Domain 1
T6 construct: made in house; host or cells: E. coli (DH5alpha, BL21 or JM109)
T6 sequence (P57105 1-145): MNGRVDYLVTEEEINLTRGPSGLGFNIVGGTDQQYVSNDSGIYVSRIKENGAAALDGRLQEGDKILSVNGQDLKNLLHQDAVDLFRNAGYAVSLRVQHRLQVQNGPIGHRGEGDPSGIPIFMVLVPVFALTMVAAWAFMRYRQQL
Summary of the method: as §1

LNETTETQRTLLNGDLQTSI (Biotin-LNETTETQRTLLNGDLQTSI) [SSTR2 (somatostatin recepor 2)]
Classification [1]: 1 (A450 nm 0-1)

CC[C@H](C)[C@H](NC(=O)[C@H](CCC(N)=O)NC(=O)[C@@H](NC(=O)[C@H](Cc1c[nH]cn1)NC(=O)[C@H](CCC(N)=O)NC(=O)[C@H](CC(=O)O)NC(=O)[C@H](CCC(=O)O)NC(=O)[C@H](CC(=O)O)NC(=O)[C@H](Cc1ccccc1)NC(=O)[C@@H]1CCCN1C(=O)[C@H](CCC(=O)O)NC(=O)[C@H](CC(N)=O)NC(=O)[C@H](CCC(=O)O)NC(=O)[C@@H]1CCCN1C(=O)[C@H](CC(=O)O)NC(=O)[C@H](CO)NC(=O)[C@H](CC(=O)O)NC(=O)CCCC[C@@H]1SC[C@@H]2NC(=O)N[C@@H]21)[C@@H](C)O)C(=O)N[C@H](C(=O)N[C@@H](CCCCN)C(=O)N[C@H](C(=O)O)C(C)C)[C@@H](C)O [PTEN]
Classification [2]: 2 (A450 nm 1-2) | Classification ([3]; PDZ AIPC, PDZ Domain 1): 1 (A450 nm 0-1) | Classification [4]: 1 (A450 nm 0-1) | pKd ([5]; PDZ SHANK, PDZ Domain 1): 5.82

KTMPAAMFRLLTGQETPLYI (Biotin-KTMPAAMFRLLTGQETPLYI) [MINT-2]
Classification ([3]; PDZ AIPC, PDZ Domain 1): 1 (A450 nm 0-1) | Classification ([3]; PDZ KIAA0300, PDZ Domain 1): 3 (A450 nm 2-3) | Classification [1]: 1 (A450 nm 0-1)

QATSRNGHSARQHVVADTEL (Biotin-QATSRNGHSARQHVVADTEL) [CD34]
Classification [6]: 1 (A450 nm 0-1) | Classification [1]: 1 (A450 nm 0-1)

CC[C@H](C)[C@H](NC(=O)[C@H](CC(=O)O)NC(=O)[C@H](CCC(=O)O)NC(=O)[C@H](CCCNC(=N)N)NC(=O)[C@@H](NC(=O)CCCC[C@@H]1SC[C@@H]2NC(=O)N[C@@H]21)[C@@H](C)O)C(=O)N[C@@H](Cc1ccc(O)cc1)C(=O)N[C@H](C(=O)N[C@@H](CC(N)=O)C(=O)N[C@@H](Cc1ccc(O)cc1)C(=O)N1CCC[C@H]1C(=O)N[C@H](C(=O)N[C@@H](Cc1ccccc1)C(=O)N[C@@H](CO)C(=O)N[C@@H](CCCNC(=N)N)C(=O)N[C@@H](CCCNC(=N)N)C(=O)N1CCC[C@H]1C(=O)N[C@@H](CCCCN)C(=O)N[C@H](C(=O)N[C@@H](CCCNC(=N)N)C(=O)N[C@H](C(=O)O)C(C)C)[C@@H](C)O)[C@@H](C)O)C(C)C [DNAM-1] (Biotin-TREDIYVNYPTFSRRPKTRV-OH; C-terminus assumed)
Classification [2]: 1 (A450 nm 0-1) | Classification [7]: 1 (A450 nm 0-1) | Classification [4]: 5 (A450 nm of 4 more than 2× repeated) | pKd ([5]; PDZ BAI-1, PDZ Domain 2): 5.40
